Results on 15 compounds are retold here after patent US8846704B2, “Thiopyrimidine-based compounds and uses thereof” (YM Biosciences Austraila Pty Ltd, priority 2007, dated 2014).

The structures appear in SMILES notation.

What all share (type): biochemical
In one assay the target is T1, FLT-3 tyrosine kinase (Homo sapiens, UniProt P36888).
T1 construct: purchased Upstate Cell Signalling Solutions, CA, USA 14-500
T1 sequence (P36888 27-993): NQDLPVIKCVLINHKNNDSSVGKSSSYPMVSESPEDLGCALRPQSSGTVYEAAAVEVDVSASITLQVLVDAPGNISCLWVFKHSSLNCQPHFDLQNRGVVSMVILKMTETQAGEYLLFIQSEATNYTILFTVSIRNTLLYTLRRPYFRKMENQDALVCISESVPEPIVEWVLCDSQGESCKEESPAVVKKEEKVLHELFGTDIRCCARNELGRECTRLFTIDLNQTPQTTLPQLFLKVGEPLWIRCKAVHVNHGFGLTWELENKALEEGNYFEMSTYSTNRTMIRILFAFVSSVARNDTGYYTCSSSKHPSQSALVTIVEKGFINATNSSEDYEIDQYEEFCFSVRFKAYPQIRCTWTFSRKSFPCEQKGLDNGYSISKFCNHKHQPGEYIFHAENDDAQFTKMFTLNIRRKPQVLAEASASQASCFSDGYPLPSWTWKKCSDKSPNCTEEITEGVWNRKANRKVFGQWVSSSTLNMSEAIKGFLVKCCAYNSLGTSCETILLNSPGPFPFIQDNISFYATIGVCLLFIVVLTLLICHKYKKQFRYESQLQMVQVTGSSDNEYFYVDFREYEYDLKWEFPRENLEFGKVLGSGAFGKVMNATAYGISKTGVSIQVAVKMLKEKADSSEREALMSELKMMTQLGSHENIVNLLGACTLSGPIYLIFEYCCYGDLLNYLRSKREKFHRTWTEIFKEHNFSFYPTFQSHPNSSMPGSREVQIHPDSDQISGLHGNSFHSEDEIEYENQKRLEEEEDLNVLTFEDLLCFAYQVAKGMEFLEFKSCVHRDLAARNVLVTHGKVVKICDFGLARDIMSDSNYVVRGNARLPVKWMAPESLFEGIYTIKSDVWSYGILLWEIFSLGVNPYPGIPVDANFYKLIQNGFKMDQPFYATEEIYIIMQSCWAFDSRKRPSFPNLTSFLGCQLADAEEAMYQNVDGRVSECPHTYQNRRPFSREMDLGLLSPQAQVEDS
Put plainly: Alphascreen tyrosine kinase enzyme assay, FLT-3. To be noted: FLT3; read-out: FMS, FLT3, or HCK IC50_nM (FLT3). How it is done:
For screening purposes, compounds (in 100% DMSO) were warmed at 37 degrees for at least 20 minutes before use. A […] stock was initially made in assay buffer, where the final concentration of DMSO was 0.3%. The stocks were then diluted in 384 well Optiplates (Packard) where the final concentration of the compound was […].
FLT-3 tyrosine kinase enzyme was purchased from Upstate Cell Signalling Solutions, CA, USA (flt-3 catalog #: 14-500).
Kinase assays were performed in 384 well Optiplates (Packard) using an Alphascreen Protein Tyrosine Kinase PY100 detection kit The compounds were pre-incubated with affinity purified PTK domain in the presence of phosphotyrosine assay buffer (10 mM HEPES, pH 7.5, 100 mM MgCl2, 25 mM NaCl, […] and 0.1% Tween 20) for 20 minutes. The compounds were then incubated with substrate in the presence of ATP. The substrate used was susbtrate-1 with the sequence biotin-EGPWLEEEEEAYGWMDF-NH2 [SEQ. ID. NO. 13] (final concentration […]). For HCK 80 μm ATP was used and incubated for 60 minutes. Alphascreen phosphotyrosine acceptor beads followed by streptavidin donor beads at a concentration of 1/100 in stop buffer were added to each well under subdued light and incubated for 2-3 hours., The Alphascreen plates were read on a Packard Fusion Alpha instrument.

Another assay deals with T2, Bmx(h) (Homo sapiens, UniProt P51813).
T2 construct: purchased Upstate Biotechnology (Dundee, UK), KinaseProfiler service
T2 sequence (P51813 1-675): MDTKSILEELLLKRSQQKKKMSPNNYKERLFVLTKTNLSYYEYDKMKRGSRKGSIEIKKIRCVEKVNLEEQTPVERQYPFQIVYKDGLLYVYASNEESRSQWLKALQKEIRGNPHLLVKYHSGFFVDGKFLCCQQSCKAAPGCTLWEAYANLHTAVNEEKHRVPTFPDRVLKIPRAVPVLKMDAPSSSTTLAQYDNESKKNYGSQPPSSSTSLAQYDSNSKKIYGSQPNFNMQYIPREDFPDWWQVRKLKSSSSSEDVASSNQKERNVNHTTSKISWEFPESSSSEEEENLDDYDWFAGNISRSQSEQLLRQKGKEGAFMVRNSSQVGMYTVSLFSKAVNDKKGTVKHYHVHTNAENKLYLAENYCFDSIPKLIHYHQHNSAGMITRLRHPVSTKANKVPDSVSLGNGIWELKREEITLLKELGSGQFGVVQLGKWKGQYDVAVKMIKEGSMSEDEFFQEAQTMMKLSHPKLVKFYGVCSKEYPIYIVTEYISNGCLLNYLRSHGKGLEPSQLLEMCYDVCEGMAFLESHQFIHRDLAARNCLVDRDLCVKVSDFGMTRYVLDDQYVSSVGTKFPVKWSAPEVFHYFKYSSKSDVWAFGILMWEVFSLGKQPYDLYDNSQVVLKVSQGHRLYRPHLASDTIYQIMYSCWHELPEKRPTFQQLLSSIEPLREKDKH
The experiment in a line: Upstate KinaseProfiler enzyme assay, Bmx. To be noted: 500 nM compound; read-out: Percent inhibition at 500 nM Bmx(h). In short, it runs like this:
(§1)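 First, enzymes were pre-diluted (10× working) in 20 mM MOPS, pH 7.0, supplemented with EDTA (1 mM), BSA (1 mg/ml) and glycerol (5%), plus 0.1% β-mercaptoethanol and 0.01% Brij-35. Next, they were added to the assay alongside substrates diluted in de-ionised water.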

Another assay deals with T3, Blk(m) (Mus musculus, UniProt P16277).
T3 construct: purchased Upstate Biotechnology (Dundee, UK), KinaseProfiler service
T3 sequence (P16277 whole entry): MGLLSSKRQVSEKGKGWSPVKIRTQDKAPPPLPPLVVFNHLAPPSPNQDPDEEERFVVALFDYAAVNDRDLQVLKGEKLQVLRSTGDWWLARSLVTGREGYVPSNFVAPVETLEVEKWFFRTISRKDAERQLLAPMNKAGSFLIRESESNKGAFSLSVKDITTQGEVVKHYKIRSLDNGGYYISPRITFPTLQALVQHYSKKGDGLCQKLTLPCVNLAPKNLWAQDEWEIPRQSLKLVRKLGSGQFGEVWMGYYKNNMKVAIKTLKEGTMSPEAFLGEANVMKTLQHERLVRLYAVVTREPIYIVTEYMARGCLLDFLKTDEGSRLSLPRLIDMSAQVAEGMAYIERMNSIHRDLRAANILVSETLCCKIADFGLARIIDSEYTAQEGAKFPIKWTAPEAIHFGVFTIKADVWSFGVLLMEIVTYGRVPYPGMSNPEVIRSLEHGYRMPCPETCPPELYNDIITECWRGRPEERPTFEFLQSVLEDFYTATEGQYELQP
The experiment in a line: Upstate KinaseProfiler enzyme assay, Blk. To be noted: 500 nM compound; read-out: Percent inhibition at 500 nM Blk(m). In short, it runs like this: as §1

A further assay concerns the target T4, Flt 1(h) (Homo sapiens, UniProt P17948).
T4 construct: purchased Upstate Biotechnology (Dundee, UK), KinaseProfiler service
Put plainly: Upstate KinaseProfiler enzyme assay, Flt 1. To be noted: 500 nM compound; read-out: Percent inhibition at 500 nM Flt 1(h). How it is done:
(§2) Further enzyme assays were conducted at Upstate Biotechnology (Dundee, UK) in the KinaseProfiler™ Assay system.
(§3) The general protocol is as follows. All kinases are pre-diluted to a 10× working concentration prior to addition into the assay. The composition of the dilution buffer for the kinases is 20 mM MOPS pH 7.0, 1 mM EDTA, 0.1% β-mercaptoethanol, 0.01% Brij-35, 5% glycerol, 1 mg/ml BSA. All substrates are dissolved and diluted to working stocks in de-ionised water.

For another assay, the target named is T5, Flt 4(h) (Homo sapiens, UniProt P35916).
T5 construct: purchased Upstate Biotechnology (Dundee, UK), KinaseProfiler service
T5 sequence (P35916 25-1363): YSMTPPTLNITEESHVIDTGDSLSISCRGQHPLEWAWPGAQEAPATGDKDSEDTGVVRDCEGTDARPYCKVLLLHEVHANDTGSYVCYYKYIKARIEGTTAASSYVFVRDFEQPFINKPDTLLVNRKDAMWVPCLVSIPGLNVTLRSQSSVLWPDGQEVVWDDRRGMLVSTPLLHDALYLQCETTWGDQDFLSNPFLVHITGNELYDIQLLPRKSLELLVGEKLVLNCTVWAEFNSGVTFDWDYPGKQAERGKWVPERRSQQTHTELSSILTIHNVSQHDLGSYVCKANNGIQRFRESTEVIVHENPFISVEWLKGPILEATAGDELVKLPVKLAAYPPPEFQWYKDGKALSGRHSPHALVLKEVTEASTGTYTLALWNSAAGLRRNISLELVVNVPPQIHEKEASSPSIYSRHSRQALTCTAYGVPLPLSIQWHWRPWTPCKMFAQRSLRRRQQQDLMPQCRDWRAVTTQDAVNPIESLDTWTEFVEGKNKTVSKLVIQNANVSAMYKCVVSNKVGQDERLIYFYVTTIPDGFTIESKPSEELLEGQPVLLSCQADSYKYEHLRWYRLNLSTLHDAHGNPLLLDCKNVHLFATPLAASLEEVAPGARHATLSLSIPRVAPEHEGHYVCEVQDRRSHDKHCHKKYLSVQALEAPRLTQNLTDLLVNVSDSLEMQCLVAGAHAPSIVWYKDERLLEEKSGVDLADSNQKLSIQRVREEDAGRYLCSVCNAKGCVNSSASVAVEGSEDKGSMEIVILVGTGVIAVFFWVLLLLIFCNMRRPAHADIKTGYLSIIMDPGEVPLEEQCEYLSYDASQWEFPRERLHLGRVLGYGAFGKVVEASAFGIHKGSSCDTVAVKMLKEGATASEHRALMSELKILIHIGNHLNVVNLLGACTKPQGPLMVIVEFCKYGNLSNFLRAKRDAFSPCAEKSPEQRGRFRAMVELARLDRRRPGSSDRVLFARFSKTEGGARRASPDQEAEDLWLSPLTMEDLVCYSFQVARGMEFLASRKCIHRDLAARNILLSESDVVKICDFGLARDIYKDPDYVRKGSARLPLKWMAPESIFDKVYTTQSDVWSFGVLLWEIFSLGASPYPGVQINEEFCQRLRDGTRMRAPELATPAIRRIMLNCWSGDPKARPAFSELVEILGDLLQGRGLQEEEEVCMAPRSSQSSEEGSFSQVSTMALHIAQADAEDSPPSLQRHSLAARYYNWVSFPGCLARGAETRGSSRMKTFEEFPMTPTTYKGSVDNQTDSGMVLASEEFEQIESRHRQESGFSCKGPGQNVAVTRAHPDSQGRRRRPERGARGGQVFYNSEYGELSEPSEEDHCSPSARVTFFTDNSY
The experiment in a line: Upstate KinaseProfiler enzyme assay, Flt 4. To be noted: 500 nM compound; read-out: Percent inhibition at 500 nM Flt 4(h). How it is done: as §2, §3

T4 sequence (P17948 27-1338): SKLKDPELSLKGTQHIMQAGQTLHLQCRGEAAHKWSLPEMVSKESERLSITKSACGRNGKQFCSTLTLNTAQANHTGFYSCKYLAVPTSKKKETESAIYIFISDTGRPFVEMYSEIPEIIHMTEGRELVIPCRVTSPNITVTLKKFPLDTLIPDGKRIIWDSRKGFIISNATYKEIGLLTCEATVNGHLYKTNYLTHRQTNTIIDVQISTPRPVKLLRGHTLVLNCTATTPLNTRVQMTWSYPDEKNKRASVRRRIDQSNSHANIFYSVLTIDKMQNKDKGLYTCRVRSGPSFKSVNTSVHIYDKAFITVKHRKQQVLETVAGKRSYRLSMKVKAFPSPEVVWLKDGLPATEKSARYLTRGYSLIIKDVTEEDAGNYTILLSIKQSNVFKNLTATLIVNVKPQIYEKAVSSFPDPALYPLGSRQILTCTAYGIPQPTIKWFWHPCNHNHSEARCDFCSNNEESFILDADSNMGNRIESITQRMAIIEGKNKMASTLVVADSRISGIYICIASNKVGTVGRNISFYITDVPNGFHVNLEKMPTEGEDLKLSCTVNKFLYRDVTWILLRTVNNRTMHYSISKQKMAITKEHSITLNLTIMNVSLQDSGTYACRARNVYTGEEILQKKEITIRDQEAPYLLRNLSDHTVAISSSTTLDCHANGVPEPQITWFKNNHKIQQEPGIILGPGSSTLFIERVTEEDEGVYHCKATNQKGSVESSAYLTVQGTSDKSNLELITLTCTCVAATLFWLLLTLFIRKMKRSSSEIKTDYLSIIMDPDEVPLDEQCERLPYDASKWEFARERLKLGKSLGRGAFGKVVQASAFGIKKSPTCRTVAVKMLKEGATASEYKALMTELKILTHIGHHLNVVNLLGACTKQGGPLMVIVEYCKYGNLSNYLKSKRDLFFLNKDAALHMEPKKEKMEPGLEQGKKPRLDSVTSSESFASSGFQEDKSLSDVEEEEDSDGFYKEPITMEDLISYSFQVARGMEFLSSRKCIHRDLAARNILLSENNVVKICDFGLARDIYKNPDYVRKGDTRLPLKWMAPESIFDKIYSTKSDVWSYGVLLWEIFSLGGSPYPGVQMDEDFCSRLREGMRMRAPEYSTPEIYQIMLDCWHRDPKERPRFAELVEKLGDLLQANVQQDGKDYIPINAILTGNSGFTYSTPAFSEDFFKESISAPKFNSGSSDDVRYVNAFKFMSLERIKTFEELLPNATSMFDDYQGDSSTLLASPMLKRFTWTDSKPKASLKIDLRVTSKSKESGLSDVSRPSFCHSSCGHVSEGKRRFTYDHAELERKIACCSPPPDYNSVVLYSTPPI

Regarding `OCc1cccc(Sc2ccnc(Nc3ccc(N4CCOCC4)cc3)n2)c1` [Compound 62, (3-(2-(4-Morpholinophenylamino)pyrimidin-4-ylthio)phenyl)methanol], the IC50 on FLT-3 tyrosine kinase was below 100 nM.
The same measure, in the same setting: as for `OCc1ccc(Sc2ccnc(Nc3ccc(N4CCOCC4)cc3)n2)cc1` [Compound 67, (4-(2-(4-morpholinophenylao)pyrimidin-4-ylthio)phenyl)methanol], the figure is below 100 nM; as for `N#CCNCc1cccc(Sc2ccnc(Nc3ccc(N4CCOCC4)cc3)n2)c1` [Compound 68, 2-(3-(2-(4-morpholinophenylao)pyrimidin-4-ylthio)benzylao)acetonitrile], below 500 nM.
For the compound `C=CC(=O)Nc1ccc(Sc2nc(Nc3ccc(C4CCN(C)CC4)cc3)ncc2C)cc1` [Compound 246, N-(4-(5-methyl-2-(4-(1-methylpiperidin-4-yl)phenylao)pyrimidin-4-ylthio)phenyl)acrylamide], the inhibition at 0.5 µM on Bmx(h) turned out to be 98%; on Blk(m), 97%; on Flt 1(h), 100%; on Flt 4(h), 100%.
Consider `C=CC(=O)Nc1ccc(Sc2nc(Nc3ccc(N4CCOCC4)c(OC)c3)ncc2C)cc1` [Compound 248, N-(4-(2-(3-methoxy-4-morpholinophenylao)-5-methylpyrimidin-4-ylthio)phenyl)acrylamide], for which the inhibition at 0.5 µM at Bmx(h) was 91%; at Blk(m), 92%; on Flt 1(h) it was 95%; at Flt 4(h), 100%.
The corresponding values for `C=CC(=O)Nc1ccc(Sc2nc(Nc3cccc(N4CCOCC4)c3)ncc2F)cc1` [Compound 267, N-(4-(5-fluoro-2-(3-morpholinophenylao)pyrimidin-4-ylthio)phenyl)acrylamide] are 89%, 96%, 100% and 100%.
As for `C=CC(=O)Nc1ccc(Sc2nc(Nc3cccc(CO)c3)ncc2C)cc1` [Compound 280, N-(4-(2-(3-(hydroxymethyl)phenylao)-5-methylpyrimidin-4-ylthio)phenyl)acrylamide], the inhibition at 0.5 µM was determined as 98% on Bmx(h), 99% on Blk(m), 100% at Flt 1(h) and 100% on Flt 4(h).
For `C=CC(=O)Nc1ccc(Sc2nc(Nc3ccc(NS(C)(=O)=O)cc3)ncc2C)cc1` [Compound 285, N-(4-(5-methyl-2-(4-(methylsulfonamido)phenylao)pyrimidin-4-ylthio)phenyl)acrylamide], the inhibition at 0.5 µM on Bmx(h) was 98%; at Blk(m), 97%; at Flt 1(h), 95%; at Flt 4(h) it was 98%.
`C=CC(=O)Nc1ccc(Sc2nc(Nc3ccc(N4CCC(CO)CC4)cc3)ncc2C)cc1` [Compound 286, N-(4-(2-(4-(4-(hydroxymethyl)piperidin-1-yl)phenylao)-5-methylpyrimidin-4-ylthio)phenyl)acrylamide]: the inhibition at 0.5 µM on Bmx(h) was 95%; at Blk(m), 88%; at Flt 1(h), 98%; at Flt 4(h), 100%.
Turning to `C=CC(=O)Nc1ccc(Sc2nc(Nc3cccc(NS(C)(=O)=O)c3)ncc2C)cc1` [Compound 288, N-(4-(5-methyl-2-(3-(methylsulfonamido)phenylao)pyrimidin-4-ylthio)phenyl)acrylamide], the inhibition at 0.5 µM at Bmx(h) worked out at 100%; on Blk(m), 99%; at Flt 1(h) it was 100%; at Flt 4(h) it was 100%.
For the compound `C=CC(=O)Nc1ccc(Sc2nc(Nc3ccc(OCCN4CCOCC4)cc3)ncc2C)cc1` [Compound 290, N-(4-(5-methyl-2-(4-(2-morpholinoethoxy)phenylao)pyrimidin-4-ylthio)phenyl)acrylamide], the inhibition at 0.5 µM at Bmx(h) came to 97%; at Blk(m), 97%; on Flt 1(h), 100%; on Flt 4(h), 100%.
Consider `C=CC(=O)Nc1ccc(Sc2nc(Nc3ccc(OCCCN(CC)CC)cc3)ncc2C)cc1` [Compound 291, N-(4-(2-(4-(3-(diethylao)propoxy)phenylao)-5-methylpyrimidin-4-ylthio)phenyl)acrylamide], for which the inhibition at 0.5 µM at Bmx(h) came to 99%; on Blk(m), 99%; at Flt 1(h), 100%; on Flt 4(h), 100%.
On to `C=CC(=O)Nc1ccc(Sc2nc(Nc3ccc(OC)c(NS(C)(=O)=O)c3)ncc2C)cc1` [Compound 293, N-(4-(2-(4-methoxy-3-(methylsulfonamido)phenylao)-5-methylpyrimidin-4-ylthio)phenyl)acrylamide], for which the inhibition at 0.5 µM on Bmx(h) came to 79%; on Blk(m), 30%; on Flt 1(h) it was 79%; on Flt 4(h) it was 100%.
Turning to `O=C(/C=C/Cl)Nc1cccc(Sc2ccnc(Nc3ccc(N4CCOCC4)cc3)n2)c1` [Compound 340, (E)-3-chloro-N-(3-(2-(4-morpholinophenylao)pyrimidin-4-ylthio)phenyl)acrylamide], the inhibition at 0.5 µM at Bmx(h) came out at 92%; on Blk(m) it was 99%; on Flt 1(h), 100%; at Flt 4(h), 95%.
For `C=CC(=O)Nc1ccc(Sc2ccnc(Nc3ccc(S(N)(=O)=O)c(OC)c3)n2)cc1` [Compound 374, N-(4-(2-(3-methoxy-4-sulfamoylphenylao)pyrimidin-4-ylthio)phenyl)acrylamide] the same measures were 91%, 96%, 100% and 100%.
